In the supplement of paper PMC10307832:

Legend:
Experiment in all cases: relative viability (nuclei count vs DMSO), 5 days (fraction); higher = more cells survive
CAL-12T = test system: CAL-12T
Summary of the method: (§1)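 Five library-drug doses in √10 steps were combined with a fixed anchor-drug dose, or a single drug was given alone, by pin tool to lung cancer cell lines in 1536-well plates the day after seeding. Nuclei were stained and counted after 5 days. Relative viability is the nuclei count in treated wells over that in vehicle wells, taken as the median of duplicate plates.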

EKVX = test system: EKVX
Summary of the method: as §1

H3255 = test system: H3255
Summary of the method: as §1

HCC-15 = test system: HCC-15
Summary of the method: as §1

HCC-827 = test system: HCC-827
Summary of the method: as §1

LCLC-97TM1 = test system: LCLC-97TM1
Summary of the method: as §1

LK-2 = test system: LK-2
Summary of the method: as §1

NCI-H1355 = test system: NCI-H1355
Summary of the method: as §1

NCI-H1563 = test system: NCI-H1563
Summary of the method: as §1

NCI-H1650 = test system: NCI-H1650
Summary of the method: as §1

NCI-H1734 = test system: NCI-H1734
Summary of the method: as §1

NCI-H1755 = test system: NCI-H1755
Summary of the method: as §1

NCI-H1975 = test system: NCI-H1975
Summary of the method: as §1

NCI-H2228 = test system: NCI-H2228
Summary of the method: as §1

NCI-H2405 = test system: NCI-H2405
Summary of the method: as §1

NCI-H322M = test system: NCI-H322M
Summary of the method: as §1

NCI-H520 = test system: NCI-H520
Summary of the method: as §1

NCI-H661 = test system: NCI-H661
Summary of the method: as §1

PC-14 = test system: PC-14
Summary of the method: as §1

PC-3 [JPC-3] = test system: PC-3 [JPC-3]
Summary of the method: as §1

RERF-LC-KJ = test system: RERF-LC-KJ
Summary of the method: as §1

Nc1ccn([C@@H]2O[C@H](CO)[C@@H](O)[C@@H]2O)c(=O)n1 [Cytarabine] + CS(=O)(=O)N1CCN(Cc2cc3nc(-c4cccc5[nH]ncc45)nc(N4CCOCC4)c3s2)CC1 [Pictilisib] (partner 1 µM)
relative viability (CAL-12T; first compound 0.005 µM): 0.403 | relative viability (CAL-12T; first compound 0.01581 µM): 0.357 | relative viability (CAL-12T; first compound 0.05 µM): 0.31 | relative viability (CAL-12T; first compound 0.1581 µM): 0.326 | relative viability (CAL-12T; first compound 0.5 µM): 0.222 | relative viability (EKVX; first compound 0.005 µM): 0.486 | relative viability (EKVX; first compound 0.01581 µM): 0.362 | relative viability (EKVX; first compound 0.05 µM): 0.406 | relative viability (EKVX; first compound 0.1581 µM): 0.2 | relative viability (EKVX; first compound 0.5 µM): 0.163 | relative viability (H3255; first compound 0.005 µM): 0.438 | relative viability (H3255; first compound 0.01581 µM): 0.446 | relative viability (H3255; first compound 0.05 µM): 0.403 | relative viability (H3255; first compound 0.1581 µM): 0.294 | relative viability (H3255; first compound 0.5 µM): 0.303 | relative viability (HCC-15; first compound 0.005 µM): 0.709 | relative viability (HCC-15; first compound 0.01581 µM): 0.704 | relative viability (HCC-15; first compound 0.05 µM): 0.672 | relative viability (HCC-15; first compound 0.1581 µM): 0.504 | relative viability (HCC-15; first compound 0.5 µM): 0.453 | relative viability (HCC-827; first compound 0.005 µM): 1.05 | relative viability (HCC-827; first compound 0.01581 µM): 0.876 | relative viability (HCC-827; first compound 0.05 µM): 0.683 | relative viability (HCC-827; first compound 0.1581 µM): 0.474 | relative viability (HCC-827; first compound 0.5 µM): 0.408 | relative viability (LCLC-97TM1; first compound 0.005 µM): 0.207 | relative viability (LCLC-97TM1; first compound 0.01581 µM): 0.177 | relative viability (LCLC-97TM1; first compound 0.05 µM): 0.0754 | relative viability (LCLC-97TM1; first compound 0.1581 µM): 0.124 | relative viability (LCLC-97TM1; first compound 0.5 µM): 0.108 | relative viability (LK-2; first compound 0.005 µM): 0.531 | relative viability (LK-2; first compound 0.01581 µM): 0.476 | relative viability (LK-2; first compound 0.05 µM): 0.426 | relative viability (LK-2; first compound 0.1581 µM): 0.23 | relative viability (LK-2; first compound 0.5 µM): 0.235 | relative viability (NCI-H1355; first compound 0.005 µM): 0.398 | relative viability (NCI-H1355; first compound 0.01581 µM): 0.392 | relative viability (NCI-H1355; first compound 0.05 µM): 0.205 | relative viability (NCI-H1355; first compound 0.1581 µM): 0.302 | relative viability (NCI-H1355; first compound 0.5 µM): 0.196 | relative viability (NCI-H1563; first compound 0.005 µM): 0.595 | relative viability (NCI-H1563; first compound 0.01581 µM): 0.649 | relative viability (NCI-H1563; first compound 0.05 µM): 0.657 | relative viability (NCI-H1563; first compound 0.1581 µM): 0.589 | relative viability (NCI-H1563; first compound 0.5 µM): 0.6 | relative viability (NCI-H1650; first compound 0.005 µM): 0.442 | relative viability (NCI-H1650; first compound 0.01581 µM): 0.467 | relative viability (NCI-H1650; first compound 0.05 µM): 0.359 | relative viability (NCI-H1650; first compound 0.1581 µM): 0.205 | relative viability (NCI-H1650; first compound 0.5 µM): 0.181 | relative viability (NCI-H1734; first compound 0.005 µM): 0.365 | relative viability (NCI-H1734; first compound 0.01581 µM): 0.217 | relative viability (NCI-H1734; first compound 0.05 µM): 0.213 | relative viability (NCI-H1734; first compound 0.1581 µM): 0.147 | relative viability (NCI-H1734; first compound 0.5 µM): 0.118 | relative viability (NCI-H1755; first compound 0.005 µM): 0.378 | relative viability (NCI-H1755; first compound 0.01581 µM): 0.417 | relative viability (NCI-H1755; first compound 0.05 µM): 0.359 | relative viability (NCI-H1755; first compound 0.1581 µM): 0.223 | relative viability (NCI-H1755; first compound 0.5 µM): 0.191 | relative viability (NCI-H1975; first compound 0.005 µM): 0.271 | relative viability (NCI-H1975; first compound 0.01581 µM): 0.281 | relative viability (NCI-H1975; first compound 0.05 µM): 0.311 | relative viability (NCI-H1975; first compound 0.1581 µM): 0.289 | relative viability (NCI-H1975; first compound 0.5 µM): 0.195 | relative viability (NCI-H2228; first compound 0.005 µM): 0.29 | relative viability (NCI-H2228; first compound 0.01581 µM): 0.188 | relative viability (NCI-H2228; first compound 0.05 µM): 0.399 | relative viability (NCI-H2228; first compound 0.1581 µM): 0.109 | relative viability (NCI-H2228; first compound 0.5 µM): 0.146 | relative viability (NCI-H2405; first compound 0.005 µM): 0.398 | relative viability (NCI-H2405; first compound 0.01581 µM): 0.334 | relative viability (NCI-H2405; first compound 0.05 µM): 0.319 | relative viability (NCI-H2405; first compound 0.1581 µM): 0.301 | relative viability (NCI-H2405; first compound 0.5 µM): 0.229 | relative viability (NCI-H322M; first compound 0.005 µM): 0.443 | relative viability (NCI-H322M; first compound 0.01581 µM): 0.492 | relative viability (NCI-H322M; first compound 0.05 µM): 0.368 | relative viability (NCI-H322M; first compound 0.1581 µM): 0.279 | relative viability (NCI-H322M; first compound 0.5 µM): 0.308 | relative viability (NCI-H520; first compound 0.005 µM): 0.228 | relative viability (NCI-H520; first compound 0.01581 µM): 0.276 | relative viability (NCI-H520; first compound 0.05 µM): 0.288 | relative viability (NCI-H520; first compound 0.1581 µM): 0.27 | relative viability (NCI-H520; first compound 0.5 µM): 0.309 | relative viability (NCI-H661; first compound 0.005 µM): 0.411 | relative viability (NCI-H661; first compound 0.01581 µM): 0.323 | relative viability (NCI-H661; first compound 0.05 µM): 0.217 | relative viability (NCI-H661; first compound 0.1581 µM): 0.284 | relative viability (NCI-H661; first compound 0.5 µM): 0.222 | relative viability (PC-14; first compound 0.01581 µM): 0.698 | relative viability (PC-14; first compound 0.05 µM): 0.49 | relative viability (PC-14; first compound 0.5 µM): 0.126 | relative viability (PC-3 [JPC-3]; first compound 0.005 µM): 0.695 | relative viability (PC-3 [JPC-3]; first compound 0.01581 µM): 0.673 | relative viability (PC-3 [JPC-3]; first compound 0.05 µM): 0.647 | relative viability (PC-3 [JPC-3]; first compound 0.1581 µM): 0.448 | relative viability (PC-3 [JPC-3]; first compound 0.5 µM): 0.479 | relative viability (RERF-LC-KJ; first compound 0.005 µM): 0.493 | relative viability (RERF-LC-KJ; first compound 0.01581 µM): 0.459 | relative viability (RERF-LC-KJ; first compound 0.05 µM): 0.487 | relative viability (RERF-LC-KJ; first compound 0.1581 µM): 0.428 | relative viability (RERF-LC-KJ; first compound 0.5 µM): 0.287
